From ChEMBL document CHEMBL2401687, “Hypoxia induced CA9 inhibitory targeting by two different sulfonamide derivatives including acetazolamide in human glioblastoma” (Bioorg Med Chem, 2013)
Calls of active or inactive are those of the source. The calls are words filed in the database; no cut-off is given here.

Key:
[1] = tested on: U-251; assay: Inhibition of carbonic anhydrase 9 protein expression in human U251 cells under hypoxic conditions at 500 nM treated prior to hypoxic-challenge by Western blotting analysis; assay type: functional, cell-based
[2] = tested on: GAMG; assay: Inhibition of carbonic anhydrase 9 mRNA expression in human GaMG cells under hypoxic conditions at 400 nM treated prior to hypoxic-challenge by RT-PCR analysis; assay type: functional, cell-based
[3] = tested on: U-251; assay: Inhibition of carbonic anhydrase 9 mRNA expression in human U251 cells under hypoxic conditions at 500 nM treated prior to hypoxic-challenge by RT-PCR analysis; assay type: functional, cell-based
[4] = tested on: U-373MG ATCC; assay: Inhibition of carbonic anhydrase 9 mRNA expression in human U373 cells under hypoxic conditions at 500 nM treated prior to hypoxic-challenge by RT-PCR analysis; assay type: functional, cell-based
[5] = Inhibition of carbonic anhydrase 9 protein expression in human U373 cells under hypoxic conditions at 500 nM treated prior to hypoxic-challenge by Western blotting analysis; assay type: functional, cell-based; details: U-373MG ATCC
[6] = Inhibition of carbonic anhydrase 9 protein expression in human U87MG cells under hypoxic conditions at 500 nM treated prior to hypoxic-challenge by Western blotting analysis; assay type: functional, cell-based; details: U-87MG ATCC
[7] = tested on: U-87 MG; assay: Inhibition of carbonic anhydrase 9 mRNA expression in human U87MG cells under hypoxic conditions at 500 nM treated prior to hypoxic-challenge by RT-PCR analysis; assay type: functional, cell-based; details: U-87MG ATCC
[8] = tested on: GAMG; assay: Inhibition of carbonic anhydrase 9 protein expression in human GaMG cells under hypoxic conditions at 500 nM treated prior to hypoxic-challenge by Western blotting analysis; assay type: functional, cell-based
[9] = tested on: U-87 MG; details: Homo sapiens; U-87MG ATCC
Description: Inhibition of carbonic anhydrase 9 mRNA expression in human U87MG cells under hypoxic conditions at 5000 nM treated prior to hypoxic-challenge followed by compound addition 12 hrs after first treatment by RT-PCR analysis

[10] = tested on: U-373MG ATCC; details: Homo sapiens
Description: Inhibition of carbonic anhydrase 9 mRNA expression in human U373 cells under hypoxic conditions at 4500 nM treated prior to hypoxic-challenge followed by compound addition 12 hrs after first treatment by RT-PCR analysis

| SMILES | inhibition [1] | inhibition [2] | inhibition [3] | inhibition [4] | inhibition [5] | inhibition [6] | inhibition [7] | inhibition [8] | inhibition [9] | inhibition [10] |
| --- | --- | --- | --- | --- | --- | --- | --- | --- | --- | --- |
| CN1C(=O)[C@]2(Cc3cn([C@]45C[C@@]67SS[C@@](CO)(C(=O)N6[C@H]4Nc4ccccc45)N(C)C7=O)c4ccccc34)SS[C@@]1(CO)C(=O)N2C | inactive | Active | Active | Active | inactive | inactive | Active | Active |  |  |
| CC(=O)Nc1nnc(S(N)(=O)=O)s1 |  |  |  |  |  |  |  |  | Active | Active |
